Source: PMC11253624, “Unsaturated fatty acid perturbation combats emerging triazole antifungal resistance in the human fungal pathogen Aspergillus fumigatus” (mBio, 2024)
≈ marks a conversion by molar mass, not a printed value.

Tests used:
Aspergillus fumigatus [1] = assay: FIC checkerboard synergy assay, A. fumigatus; type: cell-based; conditions: for MIC: Aspergillus fumigatus
A. fumigatus CEA10 = assay: Fatty acid profile of 24-hour biofilms by GC-MS; type: cell-based, Aspergillus fumigatus; conditions: CEA10 24-hour biofilm; MBX-7591 0.58 µg/mL, voriconazole 0.0625 µg/mL
Aspergillus fumigatus [2] = assay: CLSI-based microbroth dilution MIC, A. fumigatus strains; conditions: Aspergillus fumigatus
Cryptococcus neoformans = assay: FIC checkerboard assay MBX-7591 and oleic acid, C. neoformans; type: cell-based
Protocol: Single-treatment controls were completed with 50 µL of media to substitute the volume of the other compound. […] Additional untreated and media-only controls were added to the plate as described above. Incubation of the plates and MIC assessments (individual and in combination) were performed as described above. FIC calculations were done according to the established formula: ∑FIC=MIC combination compound A/MIC individual compound A + MIC combination compound B/MIC individual compound B . Synergy was considered equal or lower than 0.5, and antagonism was considered to be higher than 2. FIC scores reported represent between three and five biological replicates. All antifungal susceptibility testing was done in 96-well plates using RPMI 1640 media buffered with 165 mM of MOPS and pH 7 using NaOH. CLSI-based microbroth dilution assays were done in accordance with M27 ([49]). […] Additionally, an untreated control (100 µL of a stock of 2 × 10^3 spores/mL and 100 µL of media) and a media-only control (200 µL media) were included in the plate. The plate was covered in a Breathe-Eazy membrane to allow for uniform oxygen diffusion throughout the plate and incubated for 24 hours at 35°C (Candida spp.) or 72 hours at 35°C ± 5% CO2 (Cryptococcus neoformans).

OC(Cn1cncn1)(Cn1cncn1)c1ccc(F)cc1F [Fluconazole, fluconazole]
MIC (Aspergillus fumigatus [1]; strain CEA10, FLC alone, read-out: MIC Azole (FLC)): > 256 µg/mL
MIC Azole in combination (FLC) (Aspergillus fumigatus [1]; strain CEA10, FLC with 0.613 µg/mL MBX-7591): 16 µg/mL
fold increase in FLC potency (Aspergillus fumigatus [1]; with 0.613 µg/mL MBX-7591): > 16 fold

C[C@@H](c1ncncc1F)[C@](O)(Cn1cncn1)c1ccc(F)cc1F [Voriconazole]
MIC (Aspergillus fumigatus [1]; read-out: MIC VCZ, strain 08-19-02-61 (TR34/L98H), alone): 2 µg/mL
MIC (Aspergillus fumigatus [1]; read-out: MIC VCZ, strain 08-31-08-91 (TR34/L98H), alone): 4 µg/mL
MIC (Aspergillus fumigatus [1]; read-out: MIC VCZ, strain F11628 (G138C), alone): > 8 µg/mL
MIC (Aspergillus fumigatus [1]; read-out: MIC VCZ, strain F15390 (caf8) (M220T), alone): 1 µg/mL
MIC (Aspergillus fumigatus [1]; strain CEA10, alone, read-out: MIC VCZ): 0.25 to 0.5 µg/mL
MIC VCZ in combination (Aspergillus fumigatus [1]; strain 08-19-02-61, with MBX-7591): 0.5 µg/mL
MIC VCZ in combination (Aspergillus fumigatus [1]; strain 08-31-08-91, with MBX-7591): 1 µg/mL
MIC VCZ in combination (Aspergillus fumigatus [1]; strain CEA10, with MBX-7591, listed as VCZ): 0.0625 to 0.125 µg/mL
MIC VCZ (Aspergillus fumigatus [1]; strain F11628 (G138C), alone, listed as VCZ): >8 µg/mL
MIC VCZ in combination (Aspergillus fumigatus [1]; strain F11628, with MBX-7591): 0.5 to 1 µg/mL
MIC VCZ in combination (Aspergillus fumigatus [1]; strain F15390 (caf8), with MBX-7591): 0.25 µg/mL
increase in VCZ potency in combination (Aspergillus fumigatus [1]; with 0.613 µg/mL MBX-7591): four to eight times more potent
C14:0 relative percentage of fatty acids (A. fumigatus CEA10): 0.11 ± 0.0046
C15:0 relative percentage of fatty acids (A. fumigatus CEA10): 0.39 ± 0.11
C16:0 (palmitic acid) relative percentage of fatty acids (A. fumigatus CEA10): 18.71 ± 0.25
C16:1n7 relative percentage of fatty acids (A. fumigatus CEA10): 0.38 ± 0.041
C17a relative percentage of fatty acids (A. fumigatus CEA10): 0.18 ± 0.15
C18:0 (stearic acid) relative percentage of fatty acids (A. fumigatus CEA10): 3.06 ± 0.26
C18:1n7 relative percentage of fatty acids (A. fumigatus CEA10): 0.00 ± 0
C18:1n9 (oleic acid) relative percentage of fatty acids (A. fumigatus CEA10): 31.26 ± 1.67
C18:2n6 relative percentage of fatty acids (A. fumigatus CEA10): 45.91 ± 1.99
MIC (Aspergillus fumigatus [2]; ATCC46455, read-out: Voriconazole MIC): 0.25 to 0.5 µg/mL (≈ 0.716 to 1.43 µM)
MIC (Aspergillus fumigatus [2]; read-out: Voriconazole MIC, strain 08-19-02-10 (TR34/L98H)): 2 µg/mL (≈ 5.73 µM)
MIC (Aspergillus fumigatus [2]; read-out: Voriconazole MIC, strain 08-19-02-46 (TR34/L98H)): 2 µg/mL (≈ 5.73 µM)
MIC (Aspergillus fumigatus [2]; read-out: Voriconazole MIC, strain 08-19-02-61 (TR34/L98H), Table S6): 1 µg/mL (≈ 2.86 µM)
MIC (Aspergillus fumigatus [2]; read-out: Voriconazole MIC, strain 08-31-08-91 (TR34/L98H), Table S6): 4 µg/mL (≈ 11.5 µM)
MIC (Aspergillus fumigatus [2]; read-out: Voriconazole MIC, strain 10-19-02-27 (TR34/L98H)): 4 µg/mL (≈ 11.5 µM)
MIC (Aspergillus fumigatus [2]; read-out: Voriconazole MIC, strain F11628 (G138C), Table S6): > 8 µg/mL
MIC (Aspergillus fumigatus [2]; read-out: Voriconazole MIC, strain F15390 (M220T), Table S6): 1 µg/mL (≈ 2.86 µM)

CCCCCCCC/C=C\CCCCCCCC(=O)O [Oleic acid, oleic acid]
MIC (Aspergillus fumigatus [1]; CEA10, oleic acid alone, read-out: MIC OA): > 500 µg/mL
MIC OA combination (Aspergillus fumigatus [1]; CEA10, first line of Table S8 (MBX-7591 9.81 μg/ml)): 7.81 µg/mL
MIC OA combination (Aspergillus fumigatus [1]; CEA10, second line of Table S8 (MBX-7591 19.63 μg/ml)): 15.63 µg/mL
MIC (Cryptococcus neoformans; Cryptococcus neoformans, H99, oleic acid alone, 5% CO2): > 500 µg/mL
MIC OA combination (Cryptococcus neoformans; H99, 5% CO2): 31.25 µg/mL
